Read-outs that look alike come from different tables or passages of the source.
Columns and labels:
[1] = tested on: HCV replicon cells Huh 9B; experiment: HCV replicon assay (luciferase readout); assay type: cell-based
Procedure, shortened: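 Compounds, made up at twice final strength (final DMSO 1%), were added to subgenomic replicon cells one day after plating. Incubation then ran 72 h at 37 °C, 5% CO2, without G418. Replication was quantified as firefly luciferase luminescence in lysed cells, with cytotoxicity assessed on a duplicate clear plate.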

[2] = tested on: HCV replicon cells Huh 9B; assay type: cell-based
[3] = Hepatitis C virus, 72 h, concentration reducing replicon level (luciferase activity) by 50% vs untreated cell control, 72 h incubation
[4] = concentration reducing total cell area by 50% relative to DMSO controls, methylene blue, absorbance 620 nm, 72 h incubation

SMILES | IC50 [1, 3] [µM] | TD50 [2, 4] | IC50 ([1]; Hepatitis C virus, concentration reducing replicon level (luciferase activity) by 50% vs untreated cell control, 72 h incubation) [µM] | IC50 [1] [µM] | TD50 [2]
O=C(Nc1ccc(CN2CCS(=O)(=O)CC2)cc1)c1ccc(-c2cc(NC(=O)C3CCCCC3)ccc2F)cc1 [Example 191, 5′-(Cyclohexanecarbonyl-amino)-2′-fluoro-biphenyl-4-carboxylic acid [4-(1,1-dioxo-1lambda*6*-thiomorpholin-4-ylmethyl)-phenyl]-amide] | > 5 | * (* < 50 μM) | – | – | –
O=C(Nc1ccc(CN2CCS(=O)(=O)CC2)cc1)c1ccc(-c2cc(NC(=O)C3CCCCC3)ccc2OC(F)(F)F)cc1 [Example 192, 5′-(Cyclohexanecarbonyl-amino)-2′-trifluoromethoxy-biphenyl-4-carboxylic acid [4-(1,1-dioxo-1lambda*6*-thiomorpholin-4-ylmethyl)-phenyl]-amide] | < 1 | * (* < 50 μM) | – | – | –
O=C(Nc1ccc(CN2CCS(=O)(=O)CC2)cc1)c1ccc(-c2cc(NC(=O)C3CCCCC3)ccc2Cl)cc1 [Example 193, 5′-(Cyclohexanecarbonyl-amino)-2′-chloro-biphenyl-4-carboxylic acid [4-(1,1-dioxo-1lambda*6*-thiomorpholin-4-ylmethyl)-phenyl]-amide] | < 1 | * (* < 50 μM) | – | – | –
O=C(Nc1ccc(CN2CCS(=O)(=O)CC2)cc1)c1ccc(-c2cc(NC(=O)C3CC3)ccc2Cl)cc1 [Example 194, 2′-Chloro-5′-(cyclopropanecarbonyl-amino)-biphenyl-4-carboxylic acid [4-(1,1-dioxo-1lambda*6*-thiomorpholin-4-ylmethyl)-phenyl]-amide] | < 1 | * (* < 50 μM) | – | – | –
Cc1ccc(NC(=O)C2CCC2)cc1-c1ccc(C(=O)Nc2ccc(CN3CCS(=O)(=O)CC3)cc2)cc1 [Example 195, 5′-(Cyclobutanecarbonyl-amino)-2′-methyl-biphenyl-4-carboxylic acid [4-(1,1-dioxo-1lambda*6*-thiomorpholin-4-ylmethyl)-phenyl]-amide] | < 1 | * (* < 50 μM) | – | – | –
O=C(Nc1ccc(CN2CCS(=O)(=O)CC2)cc1)c1ccc(-c2cccc(NC(=O)C3CCCCC3)c2)cc1 [Example 196, 3′-(Cyclohexanecarbonyl-amino)-biphenyl-4-carboxylic acid [4-(1,1-dioxo-1lambda*6*-thiomorpholin-4-ylmethyl)-phenyl]-amide] | 1 to 5 | * (* < 50 μM) | – | – | –
Cc1ccc(CNc2ccc3cn[nH]c3c2)cc1-c1ccc(C(=O)Nc2ccc(CN3CCS(=O)(=O)CC3)cc2)cc1 [Example 197, 5′-[(1H-Indazol-6-ylamino)-methyl]-2′-methyl-biphenyl-4-carboxylic acid [4-(1,1-dioxo-1lambda*6*-thiomorpholin-4-ylmethyl)-phenyl]-amide] | < 1 | ** (** > 50 μM) | – | – | –
Cc1ccc(CNc2cccc(Br)c2)cc1-c1ccc(C(=O)Nc2ccc(CN3CCS(=O)(=O)CC3)cc2)cc1 [Example 198, 5′-[(3-Bromo-phenylamino)-methyl]-2′-methyl-biphenyl-4-carboxylic acid [4-(1,1-dioxo-1lambda*6*-thiomorpholin-4-ylmethyl)-phenyl]-amide] | 1 to 5 | * (* < 50 μM) | – | – | –
Cc1ccc(CNCc2cccc(Cl)c2)cc1-c1ccc(C(=O)Nc2ccc(CN3CCS(=O)(=O)CC3)cc2)cc1 [Example 199, 5′-[(3-Chloro-benzylamino)-methyl]-2′-methyl-biphenyl-4-carboxylic acid [4-(1,1-dioxo-1lambda*6*-thiomorpholin-4-ylmethyl)-phenyl]-amide] | – | * (* < 50 μM) | 1 to 5 | – | –
Cc1ccc(CNC(CO)Cc2cnc[nH]2)cc1-c1ccc(C(=O)Nc2ccc(CN3CCS(=O)(=O)CC3)cc2)cc1 (stereo not drawn) [Example 200, 5′-{[1-Hydroxymethyl-2-(3H-imidazol-4-yl)-ethylamino]-methyl}-2′-methyl-biphenyl-4-carboxylic acid [4-(1,1-dioxo-1lambda*6*-thiomorpholin-4-ylmethyl)-phenyl]-amide] | > 5 | ** (** > 50 μM) | – | – | –
Cc1ccc(NS(=O)(=O)c2ccc(Cl)cc2)cc1-c1ccc(C(=O)Nc2ccc(CN3CCS(=O)(=O)CC3)cc2)cc1 [Example 202, 5′-(4-Chloro-benzenesulfonylamino)-2′-methyl-biphenyl-4-carboxylic acid [4-(1,1-dioxo-1lambda*6*-thiomorpholin-4-ylmethyl)-phenyl]-amide] | 1 to 5 | ** (** > 50 μM) | – | – | –
Cc1ccc(NS(=O)(=O)c2ccc(N3CCOCC3)nc2)cc1-c1ccc(C(=O)Nc2ccc(CN3CCS(=O)(=O)CC3)cc2)cc1 [Example 203, 2′-Methyl-5′-(6-morpholin-4-yl-pyridine-3-sulfonylamino)-biphenyl-4-carboxylic acid [4-(1,1-dioxo-1lambda*6*-thiomorpholin-4-ylmethyl)-phenyl]-amide] | 1 to 5 | * (* < 50 μM) | – | – | –
Cc1ccc(NS(=O)(=O)c2ccc(Cl)s2)cc1-c1ccc(C(=O)Nc2ccc(CN3CCS(=O)(=O)CC3)cc2)cc1 [Example 204, 5′-(5-Chloro-thiophene-2-sulfonylamino)-2′-methyl-biphenyl-4-carboxylic acid [4-(1,1-dioxo-1lambda*6*-thiomorpholin-4-ylmethyl)-phenyl]-amide] | 1 to 5 | * (* < 50 μM) | – | – | –
Cc1ccc(-c2noc(C3CC3)n2)cc1-c1ccc(C(=O)Nc2ccc(CN3CCS(=O)(=O)CC3)cc2)cc1 [Example 205, 5′-(5-Cyclopropyl-[1,2,4]oxadiazol-3-yl)-2′-methyl-biphenyl-4-carboxylic acid [4-(1,1-dioxo-1lambda*6*-thiomorpholin-4-ylmethyl)-phenyl]-amide] | > 5 | * (* < 50 μM) | – | – | –
Cc1ccc(-c2noc(C3CCCCC3)n2)cc1-c1ccc(C(=O)Nc2ccc(CN3CCS(=O)(=O)CC3)cc2)cc1 [Example 206, 5′-(5-Cyclohexyl-[1,2,4]oxadiazol-3-yl)-2′-methyl-biphenyl-4-carboxylic acid [4-(1,1-dioxo-1lambda*6*-thiomorpholin-4-ylmethyl)-phenyl]-amide] | > 5 | * (* < 50 μM) | – | – | –
Cc1ccc(-c2noc(C(C)C)n2)cc1-c1ccc(C(=O)Nc2ccc(CN3CCS(=O)(=O)CC3)cc2)cc1 [Example 207, 5′-(5-Isopropyl-[1,2,4]oxadiazol-3-yl)-2′-methyl-biphenyl-4-carboxylic acid [4-(1,1-dioxo-1lambda*6*-thiomorpholin-4-ylmethyl)-phenyl]-amide] | > 5 | * (* < 50 μM) | – | – | –
CCN(CC)CCNC(=O)c1ccc(NC(=O)c2ccc(-c3cc(C(=O)NC4CC4)ccc3C)cc2)cc1 [Example 208, 6-Methyl-biphenyl-3,4′-dicarboxylic acid 3-cyclopropylamide 4′-{[4-(2-diethylamino-ethylcarbamoyl)-phenyl]-amide}] | – | – | – | > 5 | * (key: * < 50 μM; ** > 50 μM)
Cc1ccc(NC(=O)c2ccco2)cc1-c1ccc(C(=O)NCc2cccc(Cl)c2)cc1 [Example 209, Furan-2-carboxylic acid [4′-(3-chloro-benzylcarbamoyl)-6-methyl-biphenyl-3-yl]-amide] | 1 to 5 | ** (** > 50 μM) | – | – | –
CCOC(=O)c1ccc(-c2cc(NC(=O)OC(C)(C)C)ccc2C)cc1 [Example 210, 5′-tert-Butoxycarbonylamino-2′-methyl-biphenyl-4-carboxylic acid ethyl ester] | 1 to 5 | * (* < 50 μM) | – | – | –
Cc1ccc(NC(=O)c2ccc(Br)cc2)cc1-c1ccc(C(=O)Nc2ccc3cn[nH]c3c2)cc1 [Example 211, 5′-(4-Bromo-benzoylamino)-2′-methyl-biphenyl-4-carboxylic acid (1H-indazol-6-yl)-amide] | 1 to 5 | * (* < 50 μM) | – | – | –
Cc1ccc(NC(=O)c2ccc(Br)cc2)cc1-c1ccc(C(=O)Nc2ccc(-c3cnco3)cc2)cc1 [Example 212, 5′-(4-Bromo-benzoylamino)-2′-methyl-biphenyl-4-carboxylic acid (4-oxazol-5-yl-phenyl)-amide] | > 5 | ** (** > 50 μM) | – | – | –
Cc1ccc(NC(=O)c2cccs2)cc1-c1ccc(C(=O)Nc2ccc3cn[nH]c3c2)cc1 [Example 213, Thiophene-2-carboxylic acid [4′-(1H-indazol-6-ylcarbamoyl)-6-methyl-biphenyl-3-yl]-amide] | 1 to 5 | * (* < 50 μM) | – | – | –
Cc1cccc(CNC(=O)c2ccc(-c3cc(NC(=O)c4cn[nH]c4)ccc3C)cc2)c1 [Example 214, 1H-Pyrazole-4-carboxylic acid [6-methyl-4′-(3-methyl-benzylcarbamoyl)-biphenyl-3-yl]-amide] | > 5 | * (* < 50 μM) | – | – | –
Cc1cccc(CNC(=O)c2ccc(-c3cc(NC(=O)c4ccncc4)ccc3C)cc2)c1 [Example 215, N-[6-Methyl-4′-(3-methyl-benzylcarbamoyl)-biphenyl-3-yl]-isonicotinamide] | > 5 | * (* < 50 μM) | – | – | –
Cc1ccc(NC(=O)C2CC2)cc1-c1ccc(C(=O)NCc2cccc(Cl)c2)cc1 [Example 216, 5′-(Cyclopropanecarbonyl-amino)-2′-methyl-biphenyl-4-carboxylic acid 3-chloro-benzylamide] | > 5 | * (* < 50 μM) | – | – | –
Cc1ccc(NC(=O)C2CC2)cc1-c1ccc(C(=O)NCc2ccc(N3CCN(C)CC3)cc2)cc1 [Example 217, 5′-(Cyclopropanecarbonyl-amino)-2′-methyl-biphenyl-4-carboxylic acid 4-(4-methyl-piperazin-1-yl)-benzylamide] | > 5 | * (* < 50 μM) | – | – | –
Cc1ccc(NC(=O)C2CC2)cc1-c1ccc(C(=O)Nc2ccc(-n3cncn3)cc2)cc1 [Example 218, 5′-(Cyclopropanecarbonyl-amino)-2′-methyl-biphenyl-4-carboxylic acid (4-[1,2,4]triazol-1-yl-phenyl)-amide] | < 1 | * (* < 50 μM) | – | – | –
